Measured values from ChEMBL document CHEMBL3885861, “Open TG-GATES”.

Species on record: Rattus norvegicus
Assay: Open TG-GATES - Regimen: Single
Assay type: toxicity, organism-based, Sprague-Dawley
Set-up: regimen Single, gender Male, age 6 weeks
Conditions: in vivo, po, 6 mg/kg, route gavage, dose level High; for APTT / Bas / Eos / Fbg / Hb / Ht / Lym / MCH / MCHC / MCV / Mono / Neu / PT / Plat / RBC / Ret / WBC: tissue Blood; for KIDNEY_L / KIDNEY_R / KIDNEY_TOTAL: tissue Kidney; for LIVER: tissue Liver; for A/G / ALP / ALT / AST / BUN / CRE / Ca / Cl / DBIL / GLC / IP / K / LDH / Na / PL / RALB / TBIL / TC / TG / TP / gamma-GTP: tissue Plasma

O=NN(CCCl)C(=O)NC1CCCCC1 [LOMUSTINE] was tested, and the TERMINAL_BW (3 h) was 203.9 g, the APTT (3 h) was 16.2 s and the Bas (3 h) was 0%. The Eos (3 h) was 0.4%, the Fbg (3 h) was 212.6 mg/dL and the Hb (3 h) was 13.3 g/dL. It also gave a Ht (3 h) of 39.7%, a Lym (3 h) of 78.2% and an MCH (3 h) of 21.7 pg. It also gave an MCHC (3 h) of 33.4%, an MCV (3 h) of 64.8 fL and a Mono (3 h) of 9.4%. It also gave a Neu (3 h) of 12.2%, a PT (3 h) of 11.4 s and a Plat (3 h) of 106.7 x10_4/uL. It also gave an RBC (3 h) of 612.4 x10_4/ul, a Ret (3 h) of 8.5% and a WBC (3 h) of 112.2 x10_2/uL. For the same molecule, the KIDNEY_L (3 h) was 0.9 g, the KIDNEY_R (3 h) was 0.9 g and the KIDNEY_TOTAL (3 h) was 1.9 g. For the same molecule, the LIVER (3 h) was 10 g, the A/G (3 h) was 1.8 and the ALP (3 h) was 970.2 IU/L. For the same molecule, the ALT (3 h) was 36.6 IU/L, the AST (3 h) was 67.6 IU/L and the BUN (3 h) was 13.8 mg/dL. The CRE (3 h) was 0.5 mg/dL, the Ca (3 h) was 11.3 mg/dL and the Cl (3 h) was 105.4 meq/L. It also gave a DBIL (3 h) of 0.028 mg/dL, a GLC (3 h) of 189.6 mg/dL and an IP (3 h) of 10.3 mg/dL. It also gave a K (3 h) of 4.7 meq/L, an LDH (3 h) of 161 IU/L and a Na (3 h) of 140.4 meq/L. It also gave a PL (3 h) of 134 mg/dL, an RALB (3 h) of 3.6 g/dL and a TBIL (3 h) of 0.3 mg/dL. The TC (3 h) was 73.8 mg/dL, the TG (3 h) was 56.2 mg/dL and the TP (3 h) was 5.6 g/dL. For the same molecule, the gamma-GTP (3 h) was 1.6 IU/L, the TERMINAL_BW (6 h) was 201.4 g and the APTT (6 h) was 16.7 s. For the same molecule, the Bas (6 h) was 0%, the Eos (6 h) was 0.4% and the Fbg (6 h) was 217.8 mg/dL. It also gave a Hb (6 h) of 13.1 g/dL, a Ht (6 h) of 39.4% and a Lym (6 h) of 78.6%. The MCH (6 h) was 22.2 pg, the MCHC (6 h) was 33.3% and the MCV (6 h) was 66.7 fL. For the same molecule, the Mono (6 h) was 7.6%, the Neu (6 h) was 13.6% and the PT (6 h) was 12.1 s. It also gave a Plat (6 h) of 108.1 x10_4/uL, an RBC (6 h) of 591.6 x10_4/ul and a Ret (6 h) of 8.9%. The WBC (6 h) was 107.2 x10_2/uL, the KIDNEY_L (6 h) was 0.9 g and the KIDNEY_R (6 h) was 0.9 g. The KIDNEY_TOTAL (6 h) was 1.9 g, the LIVER (6 h) was 9.1 g and the A/G (6 h) was 1.9. For the same molecule, the ALP (6 h) was 865 IU/L, the ALT (6 h) was 29.4 IU/L and the AST (6 h) was 66.2 IU/L. For the same molecule, the BUN (6 h) was 10.4 mg/dL, the CRE (6 h) was 0.5 mg/dL and the Ca (6 h) was 11 mg/dL. It also gave a Cl (6 h) of 104.8 meq/L, a DBIL (6 h) of 0.008 mg/dL and a GLC (6 h) of 191.8 mg/dL. It also gave an IP (6 h) of 10.5 mg/dL, a K (6 h) of 4.7 meq/L and an LDH (6 h) of 152.6 IU/L. The Na (6 h) was 139.4 meq/L, the PL (6 h) was 132.2 mg/dL and the RALB (6 h) was 3.6 g/dL. The TBIL (6 h) was 0.3 mg/dL, the TC (6 h) was 76 mg/dL and the TG (6 h) was 36.6 mg/dL. The TP (6 h) was 5.6 g/dL, the gamma-GTP (6 h) was 1.8 IU/L and the TERMINAL_BW (9 h) was 203.2 g. The APTT (9 h) was 16.7 s, the Bas (9 h) was 0% and the Eos (9 h) was 0.4%. The Fbg (9 h) was 224.6 mg/dL, the Hb (9 h) was 13.2 g/dL and the Ht (9 h) was 40.1%. The Lym (9 h) was 79.2%, the MCH (9 h) was 21.9 pg and the MCHC (9 h) was 32.9%. The MCV (9 h) was 66.5 fL, the Mono (9 h) was 5.8% and the Neu (9 h) was 15%. For the same molecule, the PT (9 h) was 12.2 s, the Plat (9 h) was 104.4 x10_4/uL and the RBC (9 h) was 603 x10_4/ul. It also gave a Ret (9 h) of 9.2%, a WBC (9 h) of 97 x10_2/uL and a KIDNEY_L (9 h) of 1 g. It also gave a KIDNEY_R (9 h) of 1 g, a KIDNEY_TOTAL (9 h) of 1.9 g and an LIVER (9 h) of 8.7 g. The A/G (9 h) was 2.2, the ALP (9 h) was 889.4 IU/L and the ALT (9 h) was 31.4 IU/L. For the same molecule, the AST (9 h) was 67 IU/L, the BUN (9 h) was 13 mg/dL and the CRE (9 h) was 0.5 mg/dL. It also gave a Ca (9 h) of 10.9 mg/dL, a Cl (9 h) of 106.4 meq/L and a DBIL (9 h) of 0.028 mg/dL. The GLC (9 h) was 190.8 mg/dL, the IP (9 h) was 11.3 mg/dL and the K (9 h) was 5 meq/L. It also gave an LDH (9 h) of 139.4 IU/L, a Na (9 h) of 140 meq/L and a PL (9 h) of 139.4 mg/dL. It also gave an RALB (9 h) of 3.9 g/dL, a TBIL (9 h) of 0.3 mg/dL and a TC (9 h) of 78.2 mg/dL. The TG (9 h) was 39.8 mg/dL, the TP (9 h) was 5.7 g/dL and the gamma-GTP (9 h) was 1.4 IU/L. For the same molecule, the TERMINAL_BW (24 h) was 212 g, the APTT (24 h) was 15.7 s and the Bas (24 h) was 0%. It also gave an Eos (24 h) of 0.4%, a Fbg (24 h) of 214.2 mg/dL and a Hb (24 h) of 13.1 g/dL. For the same molecule, the Ht (24 h) was 39.2%, the Lym (24 h) was 84.4% and the MCH (24 h) was 21.5 pg. It also gave an MCHC (24 h) of 33.2%, an MCV (24 h) of 64.7 fL and a Mono (24 h) of 7%. For the same molecule, the Neu (24 h) was 7.8%, the PT (24 h) was 12.3 s and the Plat (24 h) was 107.2 x10_4/uL. The RBC (24 h) was 606.6 x10_4/ul, the Ret (24 h) was 8.4% and the WBC (24 h) was 121.5 x10_2/uL. It also gave a KIDNEY_L (24 h) of 1 g, a KIDNEY_R (24 h) of 1 g and a KIDNEY_TOTAL (24 h) of 2 g. It also gave an LIVER (24 h) of 10.5 g, an A/G (24 h) of 2 and an ALP (24 h) of 873 IU/L. For the same molecule, the ALT (24 h) was 35.2 IU/L, the AST (24 h) was 66.6 IU/L and the BUN (24 h) was 17.4 mg/dL. For the same molecule, the CRE (24 h) was 0.5 mg/dL, the Ca (24 h) was 11.2 mg/dL and the Cl (24 h) was 105.2 meq/L. The DBIL (24 h) was 0.014 mg/dL, the GLC (24 h) was 180.4 mg/dL and the IP (24 h) was 8.1 mg/dL. The K (24 h) was 4.7 meq/L, the LDH (24 h) was 106.2 IU/L and the Na (24 h) was 137.8 meq/L. For the same molecule, the PL (24 h) was 144.6 mg/dL, the RALB (24 h) was 3.9 g/dL and the TBIL (24 h) was 0.3 mg/dL. For the same molecule, the TC (24 h) was 78.8 mg/dL, the TG (24 h) was 71.4 mg/dL and the TP (24 h) was 5.8 g/dL. The gamma-GTP (24 h) was 1.4 IU/L.
